Patent US7833967B2, “Synthetic antimicrobial polypeptides” (priority 2003, dated 2010)

test system: E. coli TOP10; experiment: Suicide expression system (SES) growth inhibition; assay type: cell-based; conditions: Table 1; 0.1% inducer (arabinose), pBAD/gIIIA in E. coli TOP10, Bioscreen C 37° C., end point OD450 vs control vector

Point of comparison: “11 (RRRFRPPFRPPFRPPFRPPFRPPFRPP; Synthetic antimicrobial peptide) [compound 11]”, “Growth inhibition (%)” value 73%. Against it:
- 9 (RRRPPFRPPFRPPFRPPFRPPFRPPFR; Synthetic antimicrobial peptide) [compound 9] — lower, 67%

same assay, conditions: Table 3; variants of SEQ ID NO:5, re-tested in the Bioscreen C

Point of comparison: “62 (RRRPRPIPRPIPRPFPRPFPRPFHAQSNCSRTKTHLRRGSE; Synthetic antimicrobial peptide) [compound 62]”, “Growth inhibition (%)” value 77%. Against it:
- 57 (RRRPRPIPRPFPRPIPRPIPRPFPRPF; Synthetic antimicrobial peptide) [compound 57] — lower, 73%

same assay, conditions: Table 4; variants of SEQ ID NO:10, re-tested in the Bioscreen C

Point of comparison: “134 (RRRPFRPPFRPPFRPPVRPPLRPPVRP; Synthetic antimicrobial peptide) [compound 134]”, “Growth inhibition (%)” value 68%. Against it:
- 113 (RRRPLRPPVRPPFRPPVRPPFRPPFRP; Synthetic antimicrobial peptide) [compound 113] — higher, 75%
- 103 (RRRPLRPPIRPPIRPPVRPPFRPPIRP; Synthetic antimicrobial peptide) [compound 103] — higher, 73%
- 68 (RRRPIRPPFRPPFRPPLRPPVRPPFRP; Synthetic antimicrobial peptide) [compound 68] — higher, 78%
- 93 (RRRPFRPPFRPPFRPPVRPPLRPPIRP; Synthetic antimicrobial peptide) [compound 93] — lower, 61%
- 125 (RRRPIRPPFRPPLRPPFRPPVRPPVRP; Synthetic antimicrobial peptide) [compound 125] — higher, 73%
- 136 (RRRPFRPPFRPPIRPPFRPPIRPPLRP; Synthetic antimicrobial peptide) [compound 136] — higher, 77%
- 95 (RRRPFRPPLRPPLRPPIRPPVRPPFRP; Synthetic antimicrobial peptide) [compound 95] — higher, 80%

same assay, conditions: Table 5; mixed-motif library, re-tested in the Bioscreen C

Point of comparison: “215 (RRRPPRLPRPFPFRPPPRPRPFPFRP; Synthetic antimicrobial peptide) [compound 215]”, “Growth inhibition (%)” value 94%. Against it:
- 293 (RRRPPRLPRPVPFRPPPRFPRPFPIRP; Synthetic antimicrobial peptide) [compound 293] — lower, 93%
- 221 (RRRPPRLPRPFPIRPPPRFPRPLPFRP; Synthetic antimicrobial peptide) [compound 221] — lower, 93%
- 297 (RRRPPRLPRPVPFRPPPRVPRPIPVRP; Synthetic antimicrobial peptide) [compound 297] — lower, 90%
- 253 (RRRPPRLPRPIPFRPPPRLPRPIPIRP; Synthetic antimicrobial peptide) [compound 253] — lower, 91%
- 266 (RRRPPRLPRPLPFRPPPRLPRPVPVRP; Synthetic antimicrobial peptide) [compound 266] — the same, 94%
- 223 (RRRPPRLPRPFPIRPPPRLPRPLPFRP; Synthetic antimicrobial peptide) [compound 223] — lower, 90%
- 232 (RRRPPRLPRPFPLRPPPRLPRPIPVRP; Synthetic antimicrobial peptide) [compound 232] — lower, 92%
- 281 (RRRPPRLPRPLPLRPPPRFPRPVPLRP; Synthetic antimicrobial peptide) [compound 281] — lower, 91%
- 214 (RRRPPRLPRPFPFRPPPRLPRPIPLRP; Synthetic antimicrobial peptide) [compound 214] — higher, 95%
- 318 (RRRTRHVVPRPLPVRPPPRVPRPFPLRP; Synthetic antimicrobial peptide) [compound 318] — lower, 93%
- 265 (RRRPPRLPRPLPFRPPPRLPRPFPVRP; Synthetic antimicrobial peptide) [compound 265] — the same, 94%
- 212 (RRRPPRLPRPFPFRPPPRFPRPVPIRP; Synthetic antimicrobial peptide) [compound 212] — higher, 96%
- 239 (RRRPPRLPRPFPVRPPPRFPRPFPLRP; Synthetic antimicrobial peptide) [compound 239] — higher, 99%
